Laboratory results taken from patent US20250235453A1, “TRIAZOLOPYRIDAZINE COMPOUNDS USEFUL AS RAC1 INHIBITORS” (Revere Pharmaceuticals, priority 2021, published 2025).
Read-outs that look alike come from different tables or passages of the source.

How the values were obtained:
[1] = in vivo, cited from earlier work
[2] = system: animal models of estrogen positive and HER2 positive breast cancer, prostate cancer, melanoma and colorectal cancer; settings: single agent and in combination with standard of care; cited from earlier work
[3] = molecular target: T1, Rac-GEF Tiam-1 with Rac1 (G15A) (Homo sapiens, UniProt P63000, G15A); settings: MDA-MB-435 cells; similar concentrations (<5 mM); cited from earlier work
T1 construct: host or cells: MDA-MB-435

[4] = molecular target: T2, Rac1 (Homo sapiens, UniProt P63000); assay: Rac Activation AlphaScreen Assay (Rac1 AS); assay type: biochemical
T2 construct: His (N)
Experimental: The IC50 values reported in Tables 1-6 were obtained from the Rae Activation AlphaScreen Assay (Rac1 AS) assay described in subsection 2 under the section entitled “In Vitro Assays”. “†” represents an IC50 of greater than 100 uM; “††” represents an IC50 of greater than 10 uM and less than 50 uM; and “†††” represents an IC50 of less than 10 uM. “POC” means percent of control. […] Lower POC values reflect greater inhibition. “NT” means not tested.
2. Rac Activation AlphaScreen Assay (Rac1 AS)
AlphaScreen® assays were performed in 96-well microplates in a final reaction volume of 60 μL. Recombinant His-Rac1, recombinant GST-PBD (PAK Binding Domain), donor and acceptor beads (PerkinElmer), and inhibitors were incubated in exchange buffer (20 mM Tris pH 7.5, 50 mM NaCl, 1 mM MgCl2, 1 mM EDTA, 500 nM GTPyS (guanosine 5′-[Y-thio]triphosphate)) at 37° C. Readings were performed on a Tecan M1000 pro microplate reader after 1 hour. Data was analyzed using the GraphPad Prism software (GraphPad Software, Inc.), and IC50 (dose leading to 50% disruption of complex) was calculated from the dose-response curves.

[5] = molecular target: T3, Rac (Homo sapiens, UniProt P63000); settings: relative to NSC23766; cited from earlier work
T3 construct: host or cells: fibroblasts

[6] = oral administration in mice; cited from earlier work
[7] = molecular target: T4, Rac-GEF Vav2 with nucleotide-free Rac1 (G15A) (Homo sapiens, UniProt P63000, G15A); settings: MDA-MB-435 breast cancer cells; <5 mM; cited from earlier work
T4 construct: host or cells: MDA-MB-435

[8] = Rac1 AS assay, dose leading to 50% disruption of complex, read-out: IC50

| SMILES | IC50 [4, 8] [µM] | further results |
| --- | --- | --- |
| FC(F)(F)c1ccc2c(SCCCCCCn3cnc(CN4CCOCC4)c3)ccnc2c1 [GYS32661] |  | oral bioavailability ([1]; po): not orally bioavailable; plasma half-life [1]: relatively short; activity against animal models of cancer [2]: very good activity |
| CCn1c2ccccc2c2cc(Nc3ccnc(NCCCN4CCOCC4)n3)ccc21 [EHop-016] |  | association of the Rac-GEF Tiam-1 with Rac1 (G15A) [3]: does not affect; IC50 ([4]; AlphaLisa assay, read-out: IC50 inhibitory concentration versus wild type Rac1): ~10 µM; more efficient than NSC23766 as an inhibitor of Rac activity [5]: 100 fold; systemic exposure [6]: low systemic exposure; association of the Rac-GEF Vav2 with nucleotide-free Rac1 (G15A) [7]: inhibits |
| COc1ccc(CS(=O)(=O)Nc2cccc(-c3ccc4nnc(-c5cccnc5)n4n3)c2)cc1 [Compound 107] | < 10 |  |
| O=C(Cc1c[nH]c2ccccc12)Nc1cccc(-c2ccc3nnc(-c4cccnc4)n3n2)c1 [Compound 45] | < 10 |  |
| O=C(Cc1ccccc1Cl)Nc1ccc(-c2ccc3nnc(-c4cccs4)n3n2)cc1 [Compound 28] | < 10 |  |
| O=C(Cc1cccc(Cl)c1)Nc1ccc(-c2ccc3nnc(-c4ccncc4)n3n2)cc1 [Compound 10] | < 10 |  |
| CCc1ccc(CS(=O)(=O)Nc2cccc(-c3ccc4nnc(-c5cccnc5)n4n3)c2)s1 [Compound 59] | < 10 |  |
| COc1cccc(C(=O)Nc2cccc(-c3ccc4nnc(-c5cncs5)n4n3)c2)c1 [Compound 98] | < 10 |  |
| O=C(Cc1cccnc1Cl)Nc1ccc(-c2ccc3nnc(-c4ccccn4)n3n2)cc1 [Compound 22] | < 10 |  |
| O=C(Cc1cccc(F)c1)Nc1ccc(-c2ccc3nnc(-c4ccncc4)n3n2)cc1 [Compound 8] | > 100 |  |
| Cc1cccc(C(=O)Nc2cccc(-c3ccc4nnc(-c5ccc(C)o5)n4n3)c2)c1 [Compound 89] | < 10 |  |
| O=C(Cc1ccc2ccccc2c1)Nc1ccc(-c2ccc3nnc(-c4ccncc4)n3n2)cc1 [Compound 16] | 10 to 50 |  |
| Cc1ccc(-c2nnc3ccc(-c4cccc(NC(=O)c5cccc(SC(C)(C)C)c5)c4)nn23)o1 [Compound 111] | < 10 |  |
| Cc1ccc(-c2nnc3ccc(-c4cccc(NS(=O)(=O)Cc5ccc(F)cc5F)c4)nn23)o1 [Compound 106] | < 10 |  |
| Cc1ccc(-c2nnc3ccc(-c4cccc(NC(=O)c5ccc(F)c(Br)c5)c4)nn23)o1 [Compound 94] | < 10 |  |
| Cn1cc(CC(=O)Nc2cccc(-c3ccc4nnc(-c5cccnc5)n4n3)c2)c2ccccc21 [Compound 74] | < 10 |  |
| Cc1nnc2ccc(-c3ccc(NC(=O)Cc4ccco4)cc3)nn12 [Compound 31] | > 100 |  |

| SMILES | IC50 [4, 8] [µM] | further results |
| --- | --- | --- |
| Cc1ccc(-c2nnc3ccc(-c4cccc(NC(=O)c5ccc(F)c(F)c5)c4)nn23)o1 [Compound 85] | < 10 |  |
| O=S(=O)(Cc1ccc2ccccc2c1)Nc1cccc(-c2ccc3nnc(-c4cccnc4)n3n2)c1 [Compound 57] | < 10 |  |
| O=C(Cc1ccc2ccccc2n1)Nc1ccc(-c2ccc3nnc(-c4ccccn4)n3n2)cc1 [Compound 20] | > 100 |  |
| Cc1ccc(-c2nnc3ccc(-c4cccc(NC(=O)c5ccc(F)c(Cl)c5)c4)nn23)o1 [Compound 81, 3-chloro-4-fluoro-N-(3-(3-(5-methylfuran-2-yl)-[1,2,4]triazolo[4,3-b]pyridazin-6-yl)phenyl)benzamide] | < 10 |  |
| CCc1cccc(C(=O)Nc2cccc(-c3ccc4nnc(-c5ccc(C)o5)n4n3)c2)c1 [Compound 90, 3-ethyl-N-(3-(3-(5-methylfuran-2-yl)-[1,2,4]triazolo[4,3-b]pyridazin-6-yl)phenyl)benzamide] | < 10 |  |
| O=S(=O)(Cc1ccccc1F)Nc1cccc(-c2ccc3nnc(-c4cccnc4)n3n2)c1 [Compound 62] | < 10 |  |
| Cc1ccc(-c2nnc3ccc(-c4cccc(NC(=O)c5ccc(F)c(SC(C)C)c5)c4)nn23)o1 [Compound 91] | < 10 |  |
| O=C(Cc1cccc2ccccc12)Nc1ccc(-c2ccc3nnc(-c4ccncc4)n3n2)cc1 [Compound 15] | < 10 |  |
| O=C(Cc1ccccc1Cl)Nc1cccc(-c2ccc3nnc(-c4cccnc4)n3n2)c1 [Compound 44] | < 10 |  |
| O=C(Cc1ccc(F)cc1F)Nc1ccc(-c2ccc3nnc(-c4cccs4)n3n2)cc1 [Compound 27] | < 10 |  |
| O=C(Cc1ccccc1)Nc1ccc(-c2ccc3nnc(-c4ccccn4)n3n2)cc1 [Compound 30] | < 10 |  |
| COc1cccc(C(=O)Nc2cccc(-c3ccc4nnc(-c5ccc(C)o5)n4n3)c2)c1 [Compound 79] | < 10 |  |
| O=C(Nc1cccc(-c2ccc3nnc(-c4cncs4)n3n2)c1)c1ccc(F)cc1 [Compound 99, 4-fluoro-N-(3-(3-(thiazol-5-yl)-[1,2,4]triazolo[4,3-b]pyridazin-6-yl)phenyl)benzamide] | < 10 |  |
| Cc1ccc(CC(=O)Nc2ccc(-c3ccc4nnc(-c5ccncc5)n4n3)cc2)cc1C [Compound 9] | 10 to 50 |  |
| O=C(Cc1cccc2ccccc12)Nc1ccc(-c2ccc3nnc(-c4ccccn4)n3n2)cc1 [Compound 19] | < 10 |  |
| CCSc1cccc(C(=O)Nc2cccc(-c3ccc4nnc(-c5ccc(C)o5)n4n3)c2)c1 [Compound 87] | < 10 |  |
| Cc1ccc(-c2nnc3ccc(-c4cccc(NC(=O)c5cccc(Cl)c5)c4)nn23)o1 [Compound 82, 3-chloro-N-(3-(3-(5-methylfuran-2-yl)-[1,2,4]triazolo[4,3-b]pyridazin-6-yl)phenyl)benzamide] | < 10 |  |
